Patent publication US8476298B2 (Exelixis, Inc., priority 2003, dated 2013)
Like-named read-outs stand apart in the source and are kept apart here.

Key:
[1] = target: T1, KDR (baculovirus expressed human KDR kinase domain D807-V1356) (Homo sapiens, UniProt P35968); experiment: biochemical;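 also: Luciferase-coupled chemiluminescent kinase assay, activity read as percent ATP left after 4 h reaction at ambient temperature, ATP near KM, 10-point dose-response in 384-well plates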
T1 construct: human KDR kinase domain D807-V1356; host or cells: baculovirus expression

[2] = target: T2, Flt-4 (baculovirus expressed human Flt-4 kinase domain D725-R1298) (Homo sapiens, UniProt P35916); experiment: flt-4 Alphascreen Tyrosine Kinase assay; format: biochemical;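 also: AlphaScreen chemiluminescence read-out of biotinylated poly(Glu,Tyr) 4:1 phosphorylation via streptavidin donor and PY100 anti-phosphotyrosine acceptor beads, ATP near KM, 1 hr kinase reaction, 10-point dose-response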
T2 construct: human Flt-4 kinase domain D725-R1298; host or cells: baculovirus expression

[3] = target: T3, c-Met (baculovirus expressed human c-Met kinase domain P948-S1343) (Homo sapiens, UniProt P08581); experiment: c-Met Luciferase-Coupled Chemiluminescent Kinase assay (LCCA); format: biochemical;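 also: kinase activity read as percent ATP left after reaction, by luciferase-luciferin chemiluminescence, with 1 µM ATP and 1 µM poly-EY substrate, 2 h at ambient temperature, 10-point dose-response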
T3 construct: human c-Met kinase domain P948-S1343; host or cells: baculovirus expression

[4] = target: c-Kit kinase (Homo sapiens, UniProt P10721); experiment: c-Kit AlphaScreen kinase assay; format: biochemical;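 also: c-Kit kinase phosphorylating biotinylated poly(Glu,Tyr), ATP near its KM, 1 h reaction at ambient temperature, AlphaScreen chemiluminescence with streptavidin donor and anti-phosphotyrosine acceptor beads, 10-point inhibitor titration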
[5] = target: T4, Flt-3 (baculovirus expressed human Flt-3 kinase domain R571-S993) (Homo sapiens, UniProt P36888); experiment: biochemical; settings: read-out: flt3 IC50;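 also: Luciferase-coupled chemiluminescent kinase assay, activity read as percent ATP left after a 3 h reaction at room temperature, ATP near KM, 10-point dose-response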
T4 construct: human Flt-3 kinase domain R571-S993; host or cells: baculovirus expression
T4 sequence (P36888 571-993): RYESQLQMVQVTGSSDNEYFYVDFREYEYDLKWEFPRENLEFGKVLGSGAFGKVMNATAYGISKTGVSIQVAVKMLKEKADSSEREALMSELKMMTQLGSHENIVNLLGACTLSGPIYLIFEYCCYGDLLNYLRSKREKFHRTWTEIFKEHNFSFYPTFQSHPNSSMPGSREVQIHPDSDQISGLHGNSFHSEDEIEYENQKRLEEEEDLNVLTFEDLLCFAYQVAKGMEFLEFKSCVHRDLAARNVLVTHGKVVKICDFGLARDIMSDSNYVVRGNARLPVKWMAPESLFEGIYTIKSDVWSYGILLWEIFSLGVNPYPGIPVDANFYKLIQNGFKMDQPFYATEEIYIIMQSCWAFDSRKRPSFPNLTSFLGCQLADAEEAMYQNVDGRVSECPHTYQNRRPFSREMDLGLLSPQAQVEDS

[6] = Table 4, inhibition as IC50 class
[7] = Table 4, inhibition as IC50 class, read-out: flt4 IC50

T1 sequence (P35968 807-1356): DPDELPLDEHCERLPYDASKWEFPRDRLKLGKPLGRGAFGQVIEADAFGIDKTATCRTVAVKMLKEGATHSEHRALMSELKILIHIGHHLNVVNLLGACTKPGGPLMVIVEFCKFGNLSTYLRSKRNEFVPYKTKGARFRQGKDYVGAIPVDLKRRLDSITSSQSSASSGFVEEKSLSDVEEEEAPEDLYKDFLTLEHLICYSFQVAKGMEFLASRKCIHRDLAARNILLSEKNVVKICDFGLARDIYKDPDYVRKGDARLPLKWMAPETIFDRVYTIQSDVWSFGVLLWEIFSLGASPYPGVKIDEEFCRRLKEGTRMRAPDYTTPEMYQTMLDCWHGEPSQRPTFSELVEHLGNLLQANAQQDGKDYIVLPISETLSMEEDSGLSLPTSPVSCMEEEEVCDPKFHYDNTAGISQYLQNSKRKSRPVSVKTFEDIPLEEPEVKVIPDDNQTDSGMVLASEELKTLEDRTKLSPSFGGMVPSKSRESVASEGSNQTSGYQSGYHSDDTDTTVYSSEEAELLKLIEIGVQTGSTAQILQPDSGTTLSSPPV
T3 sequence (P08581 1011-1343 limits assumed): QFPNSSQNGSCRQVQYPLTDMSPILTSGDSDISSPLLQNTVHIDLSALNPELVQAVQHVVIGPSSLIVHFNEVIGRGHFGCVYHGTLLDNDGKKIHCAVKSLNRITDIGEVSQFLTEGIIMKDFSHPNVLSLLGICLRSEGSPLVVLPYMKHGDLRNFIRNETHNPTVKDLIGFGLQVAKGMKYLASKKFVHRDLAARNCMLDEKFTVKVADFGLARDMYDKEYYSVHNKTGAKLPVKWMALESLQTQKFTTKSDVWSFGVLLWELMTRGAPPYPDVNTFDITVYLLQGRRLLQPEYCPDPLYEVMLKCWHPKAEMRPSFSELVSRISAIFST
Sequence of c-Kit kinase (P10721 26-976): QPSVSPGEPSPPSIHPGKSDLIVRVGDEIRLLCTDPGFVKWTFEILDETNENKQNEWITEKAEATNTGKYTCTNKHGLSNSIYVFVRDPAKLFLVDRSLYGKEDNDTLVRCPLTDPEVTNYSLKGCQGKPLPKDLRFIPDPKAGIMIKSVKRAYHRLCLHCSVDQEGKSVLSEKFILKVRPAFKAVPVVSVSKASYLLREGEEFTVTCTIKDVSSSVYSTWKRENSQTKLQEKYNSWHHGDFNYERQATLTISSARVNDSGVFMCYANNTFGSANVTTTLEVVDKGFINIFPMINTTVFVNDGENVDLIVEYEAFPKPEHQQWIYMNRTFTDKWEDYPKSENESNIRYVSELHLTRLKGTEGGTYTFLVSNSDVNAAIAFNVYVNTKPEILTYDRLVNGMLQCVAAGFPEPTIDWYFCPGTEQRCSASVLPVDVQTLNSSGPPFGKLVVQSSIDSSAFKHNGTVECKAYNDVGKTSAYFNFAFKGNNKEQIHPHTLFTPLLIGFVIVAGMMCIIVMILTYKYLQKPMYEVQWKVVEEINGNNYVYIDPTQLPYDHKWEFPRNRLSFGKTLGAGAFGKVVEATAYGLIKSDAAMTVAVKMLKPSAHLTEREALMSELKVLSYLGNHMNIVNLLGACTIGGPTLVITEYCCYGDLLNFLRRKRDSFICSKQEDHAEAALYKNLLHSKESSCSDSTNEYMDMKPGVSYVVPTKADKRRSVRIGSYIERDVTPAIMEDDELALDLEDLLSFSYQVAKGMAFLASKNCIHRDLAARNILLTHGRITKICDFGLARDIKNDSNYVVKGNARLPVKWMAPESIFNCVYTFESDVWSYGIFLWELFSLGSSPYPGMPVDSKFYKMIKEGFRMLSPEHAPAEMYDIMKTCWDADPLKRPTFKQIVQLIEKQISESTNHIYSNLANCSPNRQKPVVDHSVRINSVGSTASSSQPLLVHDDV
T2 sequence (P35916 725-1298 isoform P35916-1): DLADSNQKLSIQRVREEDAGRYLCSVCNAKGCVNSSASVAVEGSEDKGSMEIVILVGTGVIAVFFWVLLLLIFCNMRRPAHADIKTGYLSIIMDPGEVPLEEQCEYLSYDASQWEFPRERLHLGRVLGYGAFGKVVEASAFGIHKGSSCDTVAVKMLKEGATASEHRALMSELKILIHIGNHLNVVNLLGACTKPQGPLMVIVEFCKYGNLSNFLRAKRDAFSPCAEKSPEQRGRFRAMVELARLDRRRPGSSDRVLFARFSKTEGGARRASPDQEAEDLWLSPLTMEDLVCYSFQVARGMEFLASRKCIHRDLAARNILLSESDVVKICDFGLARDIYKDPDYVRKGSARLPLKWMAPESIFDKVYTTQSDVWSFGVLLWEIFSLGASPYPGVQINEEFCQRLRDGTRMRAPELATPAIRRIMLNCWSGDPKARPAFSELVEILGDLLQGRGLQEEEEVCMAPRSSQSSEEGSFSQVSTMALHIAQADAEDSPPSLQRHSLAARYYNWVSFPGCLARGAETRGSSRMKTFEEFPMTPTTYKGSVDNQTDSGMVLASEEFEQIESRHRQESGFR

IC50 [1] [nM] | IC50 ([2]; read-out: flt4 IC50) [nM] | IC50 [3] [nM] | IC50 [4] [nM] | IC50 [5] [nM] | IC50 [3, 6] [nM] | IC50 [4, 6] [nM] | IC50 [1, 6] [nM] | IC50 [5, 6] [nM] | IC50 [2, 7] [nM] | IC50 [2] [nM] | SMILES
< 50 | < 50 |  |  |  |  |  |  |  |  |  | COc1cc2c(Oc3ccc(NC(=S)NC(=O)Cc4ccccc4)cc3F)ncnc2cc1OCC1C[C@H]2CNC[C@H]2C1 (stereo partly drawn) [Entry 1]
< 50 | < 50 | < 50 | < 50 |  |  |  |  |  |  |  | COc1cc2c(Oc3ccc(NC(=S)NC(=O)Cc4ccccc4)cc3F)ncnc2cc1OCC1C[C@@H]2CN(C)C[C@@H]2C1 (stereo partly drawn) [Entry 2]
> 5000 | 500 to 5000 | 50 to 500 | 50 to 500 |  |  |  |  |  |  |  | COc1cc2nccc(Oc3ccc(NC(=O)C(=O)N[C@@H]4CCc5ccccc5C4)cc3F)c2cc1OC [Entry 71]
50 to 500 | 500 to 5000 | 50 to 500 | 50 to 500 |  |  |  |  |  |  |  | COc1cc2nccc(Oc3ccc(NC(=O)C(=O)NCCOc4ccccc4)cc3F)c2cc1OC [Entry 73]
500 to 5000 | 500 to 5000 | 50 to 500 | 50 to 500 | 500 to 5000 |  |  |  |  |  |  | COc1cc2nccc(Oc3ccc(N4CC(Cc5ccccc5)N(S(=O)(=O)c5ccc(C)cc5)C4=O)cc3)c2cc1OC (stereo not drawn) [Example 112, 1-(4-{[6,7-bis(methyloxy)quinolin-4-yl]oxy}phenyl)-3-[(4-methylphenyl)sulfonyl]-4-(phenylmethyl)imidazolidin-2-one]
 |  |  |  |  | < 50 | 50 to 500 | < 50 | < 50 | < 50 |  | COc1cc2c(Oc3ccc(NC(=O)C(=O)NCc4ccc(F)c(C(F)(F)F)c4)cc3F)ccnc2cc1OCC1CCNCC1 [Example 216, N-[3-fluoro-4-({6-(methyloxy)-7-[(piperidin-4-ylmethyl)oxy]quinolin-4-yl}oxy)phenyl]-N′-{[4-fluoro-3-(trifluoromethyl)phenyl]methyl}ethanediamide]
 |  |  |  |  | < 50 | < 50 | < 50 | < 50 | < 50 |  | COc1cc2c(Oc3ccc(NC(=O)C(=O)NCc4cc(Cl)cc(Cl)c4)cc3F)ccnc2cc1OCC1CCNCC1 [Example 217, N-[(3,5-dichlorophenyl)methyl]-N′-[3-fluoro-4-({6-(methyloxy)-7-[(piperidin-4-ylmethyl)oxy]quinolin-4-yl}oxy)phenyl]ethanediamide]
 |  |  |  |  | < 50 | 50 to 500 | 50 to 500 | 50 to 500 | < 50 |  | COc1cc2c(Oc3ccc(NC(=O)C(=O)N[C@@H]4CCCc5ccccc54)cc3F)ccnc2cc1OCC1CCNCC1 [Example 218, N-[3-fluoro-4-({6-(methyloxy)-7-[(piperidin-4-ylmethyl)oxy]quinolin-4-yl}oxy)phenyl]-N′-[(1R)-1,2,3,4-tetrahydronaphthalen-1-yl]ethanediamide]
 |  |  |  |  | < 50 | < 50 | < 50 | < 50 | < 50 |  | COc1cc2c(Oc3ccc(NC(=O)C(=O)N[C@H]4CCCc5ccccc54)cc3F)ccnc2cc1OCC1CCNCC1 [Example 219, N-[3-fluoro-4-({6-(methyloxy)-7-[(piperidin-4-ylmethyl)oxy]quinolin-4-yl}oxy)phenyl]-N′-[(1S)-1,2,3,4-tetrahydronaphthalen-1-yl]ethanediamide]
 |  |  |  |  | < 50 | 50 to 500 | 50 to 500 | 50 to 500 | 50 to 500 |  | COc1cc2c(Oc3ccc(NC(=O)C(=O)NC4CCCC4)cc3F)ccnc2cc1OCC1CCNCC1 [Example 220, N-cyclopentyl-N′-[3-fluoro-4-({6-(methyloxy)-7-[(piperidin-4-ylmethyl)oxy]quinolin-4-yl}oxy)phenyl]ethanediamide]
 |  |  |  |  | < 50 | 50 to 500 | 50 to 500 | 50 to 500 | 50 to 500 |  | COc1cc2c(Oc3ccc(NC(=O)C(=O)NC(C)c4ccc(Br)cc4)cc3F)ccnc2cc1OCC1CCNCC1 (stereo not drawn) [Example 221, N-[1-(4-bromophenyl)ethyl]-N′-[3-fluoro-4-({6-(methyloxy)-7-[(piperidin-4-ylmethyl)oxy]quinolin-4-yl}oxy)phenyl]ethanediamide]
 |  |  |  |  | < 50 | 50 to 500 | < 50 | 50 to 500 | < 50 |  | COc1cc2c(Oc3ccc(NC(=O)C(=O)NCc4cccc(F)c4F)cc3F)ccnc2cc1OCC1CCNCC1 [Example 225, N-[(2,3-difluorophenyl)methyl]-N′-[3-fluoro-4-({6-(methyloxy)-7-[(piperidin-4-ylmethyl)oxy]quinolin-4-yl}oxy)phenyl]ethanediamide]
 |  |  |  |  | < 50 | < 50 | < 50 | < 50 | < 50 |  | COc1cc2c(Oc3ccc(NC(=O)C(=O)NCCOc4ccccc4)cc3F)ccnc2cc1OCC1CCNCC1 [Example 226, N-[3-fluoro-4-({6-(methyloxy)-7-[(piperidin-4-ylmethyl)oxy]quinolin-4-yl}oxy)phenyl]-N′-[2-(phenyloxy)ethyl]ethanediamide]
 |  |  |  |  | < 50 | 50 to 500 | 50 to 500 | < 50 | 50 to 500 |  | COc1cc2c(Oc3ccc(NC(=O)C(=O)NCC(c4ccccc4)c4ccccc4)cc3F)ccnc2cc1OCC1CCNCC1 [Example 227, N-(2,2-diphenylethyl)-N′-[3-fluoro-4-({6-(methyloxy)-7-[(piperidin-4-ylmethyl)oxy]quinolin-4-yl}oxy)phenyl]ethanediamide]
 |  |  |  |  | < 50 | < 50 | 50 to 500 | 50 to 500 |  |  | COc1ccc(CNC(=O)C(=O)Nc2ccc(Oc3ccnc4cc(OCC5CCN(C)CC5)c(OC)cc34)c(F)c2)cc1 [Example 247, N-{3-fluoro-4-[(6-(methyloxy)-7-{[(1-methylpiperidin-4-yl)methyl]oxy}quinolin-4-yl)oxy]phenyl}-N′-{[4-(methyloxy)phenyl]methyl}ethanediamide]
 |  |  |  |  | 50 to 500 | 50 to 500 | 50 to 500 | 50 to 500 |  |  | COc1cc2c(Oc3ccc(NC(=O)C(=O)NCC(O)c4ccccc4)cc3F)ccnc2cc1OCC1CCNCC1 (stereo not drawn) [Example 251, N-[3-fluoro-4-({6-(methyloxy)-7-[(piperidin-4-ylmethyl)oxy]quinolin-4-yl}oxy)phenyl]-N′-(2-hydroxy-2-phenylethyl)ethanediamide]
 |  |  |  |  | < 50 | 500 to 5000 | 50 to 500 | 50 to 500 |  |  | CC[C@H](NC(=O)C(=O)Nc1ccc(Oc2ccnc3cc(OCC4CCNCC4)c(OC)cc23)c(F)c1)c1ccccc1 [Example 255, N-[3-fluoro-4-({6-(methyloxy)-7-[(piperidin-4-ylmethyl)oxy]quinolin-4-yl}oxy)phenyl]-N′-[(1S)-1-phenylpropyl]ethanediamide]
 |  |  |  |  | < 50 | 500 to 5000 | < 50 | 50 to 500 |  |  | COc1cc2c(Oc3ccc(NC(=O)C(=O)NCc4cc(C(F)(F)F)cc(C(F)(F)F)c4)cc3F)ccnc2cc1OCC1CCNCC1 [Example 272, N-{[3,5-bis(trifluoromethyl)phenyl]methyl}-N′-[3-fluoro-4-({6-(methyloxy)-7-[(piperidin-4-ylmethyl)oxy]quinolin-4-yl}oxy)phenyl]ethanediamide]
 |  |  |  |  | 50 to 500 | 500 to 5000 | 500 to 5000 | 50 to 500 |  |  | COc1cc2c(Oc3ccc(NC(=O)C(=O)NCc4cnccn4)cc3F)ccnc2cc1OCC1CCNCC1 [Example 273, N-[3-fluoro-4-({6-(methyloxy)-7-[(piperidin-4-ylmethyl)oxy]quinolin-4-yl}oxy)phenyl]-N′-(pyrazin-2-ylmethyl)ethanediamide]
 |  |  |  |  |  |  |  |  |  | 5.58 | COc1cc2nccc(Oc3ccc(NC(=O)C4(C(=O)Nc5ccc(F)cc5)CC4)cc3)c2cc1OC [Example 289, N-(4-{[6,7-bis(methyloxy)quinolin-4-yl]oxy}phenyl)-N′-(4-fluorophenyl)cyclopropane-1,1-dicarboxamide]
50 to 500 |  | < 50 | 50 to 500 | < 50 |  |  |  |  |  |  | COc1cc2nccc(Oc3ncc(NC(=O)C4(C(=O)Nc5ccccc5)CC4)cc3Cl)c2cc1OC [Example 305, N-(6-{[6,7-bis(methyloxy)quinolin-4-yl]oxy}-5-chloropyridin-3-yl)-N′-phenylcyclopropane-1,1-dicarboxamide]
 | < 50 |  | < 50 | < 50 |  |  |  |  |  |  | COc1cc2nccc(Oc3ccc(NC(=O)C4(C(=O)Nc5ccc(F)cc5)CC4)cc3F)c2cc1OC [Example 319, N-(4-{[6,7-bis(methyloxy)quinolin-4-yl]oxy}-3-fluorophenyl)-N′-(4-fluorophenyl)cyclopropane-1,1-dicarboxamide]
< 50 | < 50 |  | < 50 | < 50 |  |  |  |  |  |  | COc1cc2c(Oc3ccc(NC(=O)C4(C(=O)Nc5ccc(F)cc5)CC4)cc3)ccnc2cc1OCCCN1CCOCC1 [Example 335, N-(4-fluorophenyl)-N′-[4-({6-(methyloxy)-7-[(3-morpholin-4-ylpropyl)oxy]quinolin-4-yl}oxy)phenyl]cyclopropane-1,1-dicarboxamide]
